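In this assay, cells in 96-well plates receive the compound at five concentrations for 48 hours. Endpoints are linearly interpolated between the surrounding concentrations. Abbreviation: GI50, concentration required for 50% inhibition of growth.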 Activity calls are given as the source filed them. Cut-off read from the data, not from the text of the source: active = GI50 up to about 1.1 µM and inactive = higher.
Key:
Assay in all cases: growth of human tumour cells (NCI), 48 h
MDA-MB-231 = test system: MDA-MB-231
NCI/ADR-RES = test system: NCI/ADR-RES
IGROV-1 = test system: IGROV-1
OVCAR-4 = test system: OVCAR-4
RPMI-8226 = test system: RPMI-8226
786-0 = test system: 786-0
NCI-H460 = test system: NCI-H460
OVCAR-8 = test system: OVCAR-8
UACC-62 = test system: UACC-62
Malme-3M = test system: Malme-3M
NCI-H522 = test system: NCI-H522
MDA-MB-435 = test system: MDA-MB-435
U-251 = test system: U-251
SNB-19 = test system: SNB-19
HL-60 = test system: HL-60
NCI-H226 = test system: NCI-H226
SN12C = test system: SN12C
SR = test system: SR
MDA-N = test system: MDA-N
SK-OV-3 = test system: SK-OV-3

Row | SMILES | GI50 (MDA-MB-231) | GI50 (NCI/ADR-RES) | GI50 (IGROV-1) | GI50 (OVCAR-4) | GI50 (RPMI-8226) | GI50 (786-0) | GI50 (NCI-H460) | GI50 (OVCAR-8) | GI50 (UACC-62) | GI50 (Malme-3M) | GI50 (NCI-H522) | GI50 (MDA-MB-435) | GI50 (U-251) | GI50 (SNB-19) | GI50 (HL-60) | GI50 (NCI-H226) | GI50 (SN12C) | GI50 (SR) | GI50 (MDA-N) | GI50 (SK-OV-3)
1 | CC1(C)Oc2ccc3ccc(=O)oc3c2C(O)C1O (centres undefined) | 71.8 µM (inactive) | 34 µM (inactive) | 33.2 µM (inactive) | 39.5 µM (inactive) | 30.2 µM (inactive) | 45 µM (inactive) | 40 µM (inactive) | 34 µM (inactive) | 8.39 µM (inactive) | 40.3 µM (inactive) | 33.7 µM (inactive) | 33.7 µM (inactive) | 38.3 µM (inactive) | > 100 µM (inactive) | 33.3 µM (inactive) | 48.3 µM (inactive) | > 100 µM (inactive) | 59.4 µM (inactive) | 35.1 µM (inactive) | 
2 | Cc1cc(O)nc2cc3oc4ccccc4c3cc12 | 52 µM (inactive) | > 100 µM (inactive) | > 63.7 µM (inactive) | > 62.2 µM (inactive) | 37.9 µM (inactive) | 25.2 µM (inactive) | 3.91 µM (inactive) | > 100 µM (inactive) | 17.5 µM (inactive) | > 30.1 µM (inactive) | 34.1 µM (inactive) | > 88.1 µM (inactive) | 17.1 µM (inactive) | > 50.6 µM (inactive) | 17.6 µM (inactive) | 15.7 µM (inactive) | > 100 µM (inactive) | 5.96 µM (inactive) | > 100 µM (inactive) | > 57.9 µM (inactive)
3 | Cc1ccc(/C=N/Nc2nncc3ccccc23)s1 | 33 µM (inactive) | 48 µM (inactive) | > 61 µM (inactive) | 26.3 µM (inactive) | > 100 µM (inactive) | > 52.2 µM (inactive) | > 100 µM (inactive) | 65.2 µM (inactive) | > 52.1 µM (inactive) | > 75.9 µM (inactive) | 31.5 µM (inactive) | 97.1 µM (inactive) | 53.2 µM (inactive) | > 100 µM (inactive) | > 100 µM (inactive) | > 69.2 µM (inactive) | > 100 µM (inactive) | > 100 µM (inactive) | > 61.4 µM (inactive) | > 84.1 µM (inactive)
4 | O=C1C(Cl)=C(N2CCN(c3ccccn3)CC2)C(=O)c2c(O)ccc(O)c21 | 1.74 µM (inactive) | 2.38 µM (inactive) | 1.63 µM (inactive) | 1.59 µM (inactive) | 0.394 µM (active) | 1.25 µM (inactive) | 3.07 µM (inactive) | 2.12 µM (inactive) | 0.752 µM (active) | 1.65 µM (inactive) | 1.74 µM (inactive) | 4.97 µM (inactive) | 8.49 µM (inactive) | 5.92 µM (inactive) | 0.128 µM (active) | 4.69 µM (inactive) | 1.88 µM (inactive) | 0.881 µM (active) | 1.21 µM (inactive) | 8.32 µM (inactive)
5 | COC(=O)c1c2c(cc3c1CC1(Cc4cc5c(cc4C1)CCC5)C3)CCC2 | > 100 µM (inactive) | > 100 µM (inactive) | > 100 µM (inactive) | > 100 µM (inactive) | > 100 µM (inactive) | > 100 µM (inactive) | > 100 µM (inactive) | > 100 µM (inactive) |  | > 100 µM (inactive) | > 100 µM (inactive) | 77.4 µM (inactive) | > 100 µM (inactive) | > 100 µM (inactive) | > 100 µM (inactive) |  |  | > 100 µM (inactive) | > 100 µM (inactive) | > 100 µM (inactive)
6 | CC(=O)OC(C)(C)/N=N/c1ccc(Br)cc1 | > 76.2 µM (inactive) | 14.4 µM (inactive) | 18.7 µM (inactive) | 9.18 µM (inactive) | 0.942 µM (active) | 22.9 µM (inactive) | 0.946 µM (active) | 17.5 µM (inactive) | 0.052 µM (active) | > 43.1 µM (inactive) | 9.4 µM (inactive) | 1.08 µM (active) | 25.1 µM (inactive) | > 68.2 µM (inactive) | 0.653 µM (active) | 2.96 µM (inactive) | 32.7 µM (inactive) | 0.475 µM (active) | 0.178 µM (active) | > 33.9 µM (inactive)
7 | CC(=O)c1c2c(cc3c1CC1(Cc4cc5c(cc4C1)CCCC5)C3)CCCC2 | > 100 µM (inactive) | > 100 µM (inactive) | 45 µM (inactive) | 8.39 µM (inactive) | 11.8 µM (inactive) | > 100 µM (inactive) |  | > 100 µM (inactive) | > 100 µM (inactive) | 94.8 µM (inactive) | 20.9 µM (inactive) | 16.9 µM (inactive) | > 100 µM (inactive) |  | 7.85 µM (inactive) | 43.5 µM (inactive) | > 100 µM (inactive) | 2.05 µM (inactive) | 16.4 µM (inactive) | > 100 µM (inactive)
8 | O=C1CCSc2c(cnc3ccccc23)N1 | > 100 µM (inactive) | > 100 µM (inactive) | > 100 µM (inactive) | 67.3 µM (inactive) | > 100 µM (inactive) | > 100 µM (inactive) | 89.7 µM (inactive) | > 100 µM (inactive) | > 100 µM (inactive) | > 100 µM (inactive) | > 100 µM (inactive) | > 100 µM (inactive) | > 100 µM (inactive) |  | > 100 µM (inactive) | 34.8 µM (inactive) | > 100 µM (inactive) | > 100 µM (inactive) | > 100 µM (inactive) | > 100 µM (inactive)
9 | O=C(CSc1nc2ccc(I)cc2c(=O)n1Cc1ccccc1)NNC(=O)c1ccccc1 | 10.5 µM (inactive) | 13.6 µM (inactive) | 9.27 µM (inactive) | 8.99 µM (inactive) | 3.52 µM (inactive) | 8.97 µM (inactive) | 17.3 µM (inactive) | 8.3 µM (inactive) | 14.2 µM (inactive) |  | 6.4 µM (inactive) | 35 µM (inactive) | 28 µM (inactive) | 21.3 µM (inactive) | > 100 µM (inactive) | 3.78 µM (inactive) | 17.1 µM (inactive) | 11.5 µM (inactive) | 25.1 µM (inactive) | 17.2 µM (inactive)
10 | [N-]=[N+]=Nc1ccc2c(c1)Sc1ccccc1N2CCCCN1CCN(C(=O)CCNC(=O)Cc2ccc(C(=O)c3ccccc3)cc2)CC1 | 4.74 µM (inactive) | 4.05 µM (inactive) | 6.1 µM (inactive) | 3.48 µM (inactive) | 1.58 µM (inactive) | 3.76 µM (inactive) | 3.72 µM (inactive) | 7.03 µM (inactive) | 6.05 µM (inactive) | 5.2 µM (inactive) | 2.45 µM (inactive) | 2.2 µM (inactive) | 4.23 µM (inactive) | 8.17 µM (inactive) | 2.54 µM (inactive) | 13.6 µM (inactive) | 7.26 µM (inactive) | 2.08 µM (inactive) | 3.75 µM (inactive) | 27.9 µM (inactive)
11 | COc1ccc(C(OCC2OC(n3ccc(NC(=O)c4ccccc4)nc3=O)C(O)C2O)(c2ccccc2)c2ccccc2)cc1 (centres undefined) | 2.13 µM (inactive) | 2.37 µM (inactive) | 2.08 µM (inactive) | 2.67 µM (inactive) | 2.42 µM (inactive) | 2.12 µM (inactive) | 1.98 µM (inactive) | 1.78 µM (inactive) | 8.26 µM (inactive) | 1.89 µM (inactive) | 2.48 µM (inactive) | 2.63 µM (inactive) | 1.92 µM (inactive) | 3.44 µM (inactive) | 2.24 µM (inactive) | 2.61 µM (inactive) | 1.82 µM (inactive) | 2.39 µM (inactive) | 1.92 µM (inactive) | 7.28 µM (inactive)
12 | CCN1CCCC(Nc2cc(C)nc(NC(=N)Nc3ccc(Cl)c(Cl)c3)n2)C1 (centres undefined) | 1.62 µM (inactive) | 2.78 µM (inactive) | 1.38 µM (inactive) | 1.85 µM (inactive) | 0.455 µM (active) | 1.54 µM (inactive) | 1.26 µM (inactive) |  | 1.85 µM (inactive) | 2.39 µM (inactive) | 1.24 µM (inactive) | 1.49 µM (inactive) | 1.3 µM (inactive) | 2.14 µM (inactive) | 0.216 µM (active) |  | 2.58 µM (inactive) | 1.2 µM (inactive) | 1.67 µM (inactive) | 2.78 µM (inactive)
13 | C=C1c2nc3ccccc3n2C=C(c2ccccc2)N1c1ccc(OC)cc1 | 40.2 µM (inactive) | 17.7 µM (inactive) | 11 µM (inactive) | 13.7 µM (inactive) | 12.4 µM (inactive) | 19.5 µM (inactive) | 11.7 µM (inactive) | 13.2 µM (inactive) | 17.7 µM (inactive) | 14.2 µM (inactive) | 1.63 µM (inactive) | 33.5 µM (inactive) | 37.8 µM (inactive) |  | 29.8 µM (inactive) | 11 µM (inactive) | 65.3 µM (inactive) | 17.7 µM (inactive) | 49.9 µM (inactive) | 34.6 µM (inactive)
14 | CCN1/C(=C/c2ccc3ccccc3[n+]2CC)C=Cc2ccccc21 | 1.77 µM (inactive) | 21.9 µM (inactive) | 2.51 µM (inactive) | 0.617 µM (active) | 0.19 µM (active) | 2.32 µM (inactive) | 0.333 µM (active) | 0.555 µM (active) | 0.767 µM (active) | 1.39 µM (inactive) | 0.266 µM (active) | 0.316 µM (active) | 0.131 µM (active) | 0.541 µM (active) | 1.09 µM (active) | 1.66 µM (inactive) | 0.649 µM (active) | 0.164 µM (active) | 0.39 µM (active) | 2.18 µM (inactive)
